# Data as given in patent publication US8399380B2, “Herbicidal composition” (Sumitomo Chemical Company, Limited, priority 2007, dated 2013).
# What was measured:
# Format in all cases: in vivo
# Design in all cases: key: 0: there is no or little difference in the degree of growth between treated plants and untreated plants at the time of observation; 1: evaluated at 6 levels using the indices of 0 to 5; 2: evaluated at 6 levels using the indices of 0 to 5; 3: evaluated at 6 levels using the indices of 0 to 5; The herbicidal values of “4” and “5” show excellent herbicidal activity; 5: the test plants die completely or their growth is completely inhibited
# Lolium multiflorum = experiment: Test Example 1, soil application, pot test in greenhouse; details: 34 days after application
# Excerpt: (§1) The herbicidal values of “4” and “5” show excellent herbicidal activity. Each of plastic pots (measuring 22 cm in diameter and 19 cm in height) was filled with upland field soil and sown with Lolium multiflorum and Alopecurus myosuroides. Each of the predetermined amounts of a flumioxazin formulation product (trade name: Valor_SX, manufactured by Valent USA Corporation), a sulfosulfuron formulation product (trade name: Monitor, manufactured by Monsanto Company) and a mixture of the flumioxazin formulation product and the sulfosulfuron formulation product was diluted with water, and then the dilution was uniformly sprayed over the soil surface by a small-sized sprayer. After the treatment, the weeds were grown in a greenhouse, and the herbicidal activity against the weeds was evaluated at 34 days after application.
# Alopecurus myosuroides = experiment: as above; details: 34 days after application
# Excerpt: as §1
# Solidago altissima = experiment: Test Example 2, foliar application, pot test in greenhouse; details: 29 days after treatment
# Excerpt: The herbicidal values of “4” and “5” show excellent herbicidal activity. Each of plastic pots (measuring 12 cm in diameter and 8 cm in height) was filled with upland field soil and Solidago altissima collected from outdoors was transplanted to the plastic pot and grown in a greenhouse for 31 days. Each of the predetermined amounts of a flumioxazin formulation product (trade name: Valor_SX, manufactured by Valent USA Corporation), a sulfosulfuron formulation product (trade name: Monitor, manufactured by Monsanto Company) and a mixture of the flumioxazin formulation product and the sulfosulfuron formulation product was diluted with water, and then the dilution was uniformly sprayed over each plant body from above by a small-sized sprayer. After the treatment, the weeds were grown in a greenhouse for 29 days, and then the herbicidal activity against the weeds was evaluated.
SMILES,Herbicidal activity Lolium multiflorum (Lolium multiflorum; active ingredient 20 g/ha),Herbicidal activity Lolium multiflorum (Lolium multiflorum; active ingredient 40 g/ha),Herbicidal activity Alopecurus myosuroides (Alopecurus myosuroides; active ingredient 20 g/ha),Herbicidal activity Alopecurus myosuroides (Alopecurus myosuroides; active ingredient 40 g/ha),Herbicidal activity Solidago altissima (Solidago altissima; active ingredient 40 g/ha),Herbicidal activity Lolium multiflorum (Lolium multiflorum; active ingredient 10 g/ha),Herbicidal activity Alopecurus myosuroides (Alopecurus myosuroides; active ingredient 10 g/ha),Herbicidal activity Solidago altissima (Solidago altissima; active ingredient 60 g/ha),Herbicidal activity Solidago altissima (Solidago altissima; active ingredient 120 g/ha)
"CCS(=O)(=O)c1nc2ccccn2c1S(=O)(=O)NC(=O)Nc1nc(OC)cc(OC)n1 [Sulfosulfuron, 1-(4,6-dimethoxypyrimidin-2-yl)-3-(2-ethylsulfonylimidazo[1,2-a]pyridin-3-ylsulfonyl)urea]",0,0,0,2,2,–,–,–,–
"C#CCN1C(=O)COc2cc(F)c(N3C(=O)C4=C(CCCC4)C3=O)cc21 [Flumioxazin, N-(7-fluoro-3,4-dihydro-3-oxo-4-prop-2-ynyl-2H-1,4-benzeoxazin-6-yl)cyclohex-1-ene-1,2-dicarboxamide]",1,–,4,–,–,0,1,0,1
